Laboratory results taken from patent publication US6500853B1, “Inhibitors of phospholipase enzymes” (Genetics Institute, LLC, priority 1998, dated 2002).

Experiments:
cPLA2 = biological target: T1, cPLA2 (Homo sapiens, UniProt P47712); assay: Coumarin Assay (cPLA2 inhibition); type: biochemical; details: for inhibition at 12.5 µM: CONCENTRATION 12.5 micromolar; for inhibition at 50 µM: CONCENTRATION 50 micromolar; for inhibition at 70 µM: CONCENTRATION 70 micromolar; for inhibition at 100 µM: CONCENTRATION 100 micromolar; for inhibition at 400 µM: CONCENTRATION 400 micromolar
T1 sequence (P47712 1-749): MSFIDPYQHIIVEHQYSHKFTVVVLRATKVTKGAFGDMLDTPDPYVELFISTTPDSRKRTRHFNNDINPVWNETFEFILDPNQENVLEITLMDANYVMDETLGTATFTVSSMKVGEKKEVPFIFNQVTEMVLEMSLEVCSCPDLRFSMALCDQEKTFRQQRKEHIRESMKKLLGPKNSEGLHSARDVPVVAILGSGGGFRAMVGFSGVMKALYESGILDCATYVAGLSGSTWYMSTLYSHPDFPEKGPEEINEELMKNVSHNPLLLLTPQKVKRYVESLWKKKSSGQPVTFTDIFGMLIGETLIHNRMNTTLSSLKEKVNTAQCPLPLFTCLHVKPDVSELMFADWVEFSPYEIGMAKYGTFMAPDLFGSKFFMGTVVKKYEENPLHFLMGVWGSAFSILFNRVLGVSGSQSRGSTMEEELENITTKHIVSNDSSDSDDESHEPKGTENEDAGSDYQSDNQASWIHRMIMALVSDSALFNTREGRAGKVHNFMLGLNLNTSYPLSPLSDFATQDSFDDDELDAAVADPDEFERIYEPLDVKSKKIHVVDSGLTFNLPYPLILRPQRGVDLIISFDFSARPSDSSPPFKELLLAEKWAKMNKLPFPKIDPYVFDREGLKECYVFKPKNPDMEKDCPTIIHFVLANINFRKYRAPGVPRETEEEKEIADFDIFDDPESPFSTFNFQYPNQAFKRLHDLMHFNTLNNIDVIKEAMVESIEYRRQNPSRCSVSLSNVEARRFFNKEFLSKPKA
Procedure, shortened: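 Percent inhibition at the stated concentration, from the rate of 460 nm emission rise (360 nm excitation) per minute. Reaction started by adding 4 μg enzyme to compound and 60 μM 7-hydroxycoumarinyl 6-heptenoate in Hepes buffer pH 7.5 with 1 mM EDTA.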

[1] = system: Rat Carrageenan-Induced Footpad Edema; assay: Rat Carrageenan-Induced Footpad Edema Test; type: in vivo, male Sprague Dawley rats; details: Rattus norvegicus, 3 h, footpad volume 3 hours after carrageenan, read-out: PERCENT INHIBITION; for inhibition in vivo at 5 mg/kg: iv, IV
[2] = CONCENTRATION 200 micromolar, read-out: PERCENT INHIBITION @

O=C(Nc1cccc(C(=O)O)c1)C(=O)c1cn(Cc2ccc(Cc3ccccc3)cc2)c2ccccc12 [Example 59, 3-({2-[1-(4-benzylbenzyl)-1H-indol-3-yl]-2-oxoacetyl}amino)benzoic acid]
inhibition at 6 µM (cPLA2; CONCENTRATION 6 micromolar, read-out: PERCENT INHIBITION @): 50% | inhibition at 12.5 µM (cPLA2; read-out: PERCENT INHIBITION @): 90% | inhibition in vivo at 5 mg/kg [1]: 2.9%

O=C(Nc1cccc(C(=O)O)c1)C(=O)c1cn(C(c2ccccc2)c2ccccc2)c2ccccc12 [Example 61, 3-{[2-(1-benzhydryl-1H-indol-3-yl)-2-oxoacetyl]amino}benzoic acid]
inhibition at 10 µM (cPLA2; CONCENTRATION 10 micromolar, read-out: PERCENT INHIBITION @): 50% | inhibition at 12.5 µM (cPLA2; read-out: PERCENT INHIBITION @): 54% | inhibition in vivo at 5 mg/kg [1]: 18.3%

O=C(Nc1cccc(C(=O)O)c1)C(=O)c1cn(Cc2ccc(OCc3ccccc3)c(OCc3ccccc3)c2)c2ccccc12 [Example 63, 3-[(2-{1-[3,4-bis(benzyloxy)benzyl]-1H-indol-3-yl}-2-oxoacetyl)amino]benzoic acid]
inhibition at 2.5 µM (cPLA2; CONCENTRATION 2.5 micromolar, read-out: PERCENT INHIBITION @): 70% | inhibition at 7 µM (cPLA2; CONCENTRATION 7 micromolar, read-out: PERCENT INHIBITION @): 50% | inhibition in vivo at 5 mg/kg [1]: 19.6%

O=C(O)c1cccc(NCc2cn(C(c3ccccc3)c3ccccc3)c3ccc(NC(=O)C4CCCC4)cc23)c1 [Example 65, 3-[({1-benzhydryl-5-[(cyclopentylcarbonyl)amino]-1H-indol-3-yl}methyl)amino]benzoic acid]
inhibition at 50 µM (cPLA2; read-out: PERCENT INHIBITION @): 47% | inhibition at 72 µM (cPLA2; CONCENTRATION 72 micromolar, read-out: PERCENT INHIBITION @): 50% | inhibition at 80 µM (cPLA2; CONCENTRATION 80 micromolar, read-out: PERCENT INHIBITION @): 50% | inhibition in vivo at 5 mg/kg [1]: 2.84%

O=C(O)CN1CCN(Cc2cn(C(c3ccccc3)c3ccccc3)c3ccc(NC(=O)C4CCCC4)cc23)CC1 [Example 66, 2-[4-({1-benzhydryl-5-[(cyclopentylcarbonyl)amino]-1H-indol-3-yl}methyl)piperazino]acetic acid]
inhibition at 70 µM (cPLA2; read-out: PERCENT INHIBITION @): 50% | PERCENT INHIBITION @ (cPLA2; CONCENTRATION 200 micromolar): 19% | inhibition at 200 µM (cPLA2; [2]): 15% | inhibition in vivo at 5 mg/kg [1]: 25.3%

O=C(O)CC1C(=O)NCCN1Cc1cn(C(c2ccccc2)c2ccccc2)c2ccc(NC(=O)C3CCCC3)cc12 (centres unmarked) [Example 67, 2-[1-({1-benzhydryl-5-[(cyclopentylcarbonyl)amino]-1H-indol-3-yl}methyl)-3-oxo-2-piperazinyl]acetic acid]
inhibition at 100 µM (cPLA2; read-out: PERCENT INHIBITION @): 8% | inhibition at 400 µM (cPLA2; read-out: PERCENT INHIBITION @): 31% | inhibition in vivo at 5 mg/kg [1]: 10.8%

O=C(Nc1ccc2c(c1)c(CNC(CO)C(=O)O)cn2C(c1ccccc1)c1ccccc1)C1CCCC1 (centres unmarked) [Example 68, 2-[({1-benzhydryl-5-[(cyclopentylcarbonyl)amino]-1H-indol-3-yl}methyl)amino]-3-hydroxypropanoic acid]
inhibition at 100 µM (cPLA2; read-out: PERCENT INHIBITION @): 9% | inhibition at 400 µM (cPLA2; read-out: PERCENT INHIBITION @): 18% | inhibition in vivo at 5 mg/kg [1]: -4.3%

Cc1ccc(S(=O)(=O)NC(=O)c2cccc(NC(=O)C(=O)c3cn(Cc4ccc(Cc5ccccc5)cc4)c4ccc(OCc5ccccc5)cc34)c2)cc1 [Example 76, 2-[1-(4-benzylbenzyl)-5-(benzyloxy)-1H-indol-3-yl]-N-[3-({[(4-methylphenyl)sulfonyl]amino}carbonyl)phenyl]-2-oxoacetamide]
inhibition at 4 µM (cPLA2; CONCENTRATION 4 micromolar, read-out: PERCENT INHIBITION @): 50% | inhibition in vivo at 5 mg/kg [1]: 14.8%

O=C(O)Cc1cn(Cc2ccccc2)c2ccc(-c3cc4ccccc4o3)cc12 [Example 80, 2-[5-(1-benzofuran-2-yl)-1-benzyl-1H-indol-3-yl]acetic acid]
inhibition at 48 µM (cPLA2; CONCENTRATION 48 micromolar, read-out: PERCENT INHIBITION @): 50% | inhibition at 50 µM (cPLA2; read-out: PERCENT INHIBITION @): 60% | inhibition in vivo at 5 mg/kg [1]: 10.2%

O=C(O)c1ccc(CN2C(=O)S/C(=C/c3cn(CCCOc4cccc(Cc5ccccc5)c4)c4ccccc34)C2=O)cc1 [Example 82B, 4-{[5-((E)-{1-[3-(3-benzylphenoxy)propyl]-1H-indol-3-yl}methylidene)-2,4-dioxo-1,3-thiazolan-3-yl]methyl}benzoic acid]
inhibition at 6.25 µM (cPLA2; CONCENTRATION 6.25 micromolar, read-out: PERCENT INHIBITION @): 61% | inhibition at 6.5 µM (cPLA2; CONCENTRATION 6.5 micromolar, read-out: PERCENT INHIBITION @): 50% | inhibition in vivo at 5 mg/kg [1]: 4.94%

O=C(O)CCc1cn(C(c2ccccc2)c2ccccc2)c2ccc(NC(=O)C3CCCC3)cc12 [Example 84, 3-{1-benzhydryl-5-[(cyclopentylcarbonyl)amino]-1H-indol-3-yl}propanoic acid]
inhibition at 100 µM (cPLA2; read-out: PERCENT INHIBITION @): 22% | inhibition at 265 µM (cPLA2; CONCENTRATION 265 micromolar, read-out: PERCENT INHIBITION @): 50% | inhibition at 350 µM (cPLA2; CONCENTRATION 350 micromolar, read-out: PERCENT INHIBITION @): 50% | inhibition in vivo at 5 mg/kg [1]: 6.15%

CS(=O)(=O)NC(=O)CCc1cn(C(c2ccccc2)c2ccccc2)c2ccc(NC(=O)C3CCCC3)cc12 [Example 85, N-(1-benzhydryl-3-{3-[(methylsulfonyl)amino]-3-oxopropyl}-1H-indol-5-yl)cyclopentanecarboxamide]
inhibition at 100 µM (cPLA2; read-out: PERCENT INHIBITION @): 31% | inhibition at 200 µM (cPLA2; [2]): 50% | inhibition in vivo at 5 mg/kg [1]: 7.13%

O=C(O)/C=C/c1cn(C(c2ccccc2)c2ccccc2)c2ccc(NC(=O)C3CCCC3)cc12 [Example 86A, (E)-3-{1-benzhydryl-5-[(cyclopentylcarbonyl)amino]-1H-indol-3-yl}-2-propenoic acid]
inhibition at 60 µM (cPLA2; CONCENTRATION 60 micromolar, read-out: PERCENT INHIBITION @): 50% | inhibition at 70 µM (cPLA2; read-out: PERCENT INHIBITION @): 50% | inhibition at 82 µM (cPLA2; CONCENTRATION 82 micromolar, read-out: PERCENT INHIBITION @): 50% | inhibition at 118 µM (cPLA2; CONCENTRATION 118 micromolar, read-out: PERCENT INHIBITION @): 50% | inhibition in vivo at 5 mg/kg [1]: 7.4%

O=C(O)/C=C/c1cn(C(c2ccccc2)c2ccccc2)c2ccc([N+](=O)[O-])cc12 [Example 87A, (E)-3-{1-benzhydryl-5-nitro-1H-indol-3-yl}-2-propenoic acid]
inhibition at 50 µM (cPLA2; read-out: PERCENT INHIBITION @): 33% | inhibition at 95 µM (cPLA2; CONCENTRATION 95 micromolar, read-out: PERCENT INHIBITION @): 50% | inhibition in vivo at 2 mg/kg ([1]; po, PO): 12.9% | inhibition in vivo at 10 mg/kg ([1]; po, PO): 25.4%

CS(=O)(=O)NC(=O)/C=C/c1cn(C(c2ccccc2)c2ccccc2)c2ccc([N+](=O)[O-])cc12 [Example 87B, N-((E)-3-{1-benzhydryl-5-nitro-1H-indol-3-yl}-2-propenoyl)methanesulfonamide]
inhibition at 38 µM (cPLA2; CONCENTRATION 38 micromolar, read-out: PERCENT INHIBITION @): 50% | inhibition at 42.5 µM (cPLA2; CONCENTRATION 42.5 micromolar, read-out: PERCENT INHIBITION @): 50% | inhibition in vivo at 3 mg/kg ([1]; po, PO, 3 mg/Kg): 17.9% | inhibition in vivo at 10 mg/kg ([1]; po, PO): 31.4%

COc1cc(C(=O)O)ccc1Cc1cn(C(c2ccccc2)c2ccccc2)c2ccc(NS(=O)(=O)c3ccc(C(F)(F)F)cc3)cc12 [Example 89, 4-{[1-benzhydryl-5-({[4-(trifluoromethyl)phenyl]sulfonyl}amino)-1H-indol-3-yl]methyl}-3-methoxybenzoic acid]
inhibition at 4.4 µM (cPLA2; CONCENTRATION 4.4 micromolar, read-out: PERCENT INHIBITION @): 50% | inhibition at 4.8 µM (cPLA2; CONCENTRATION 4.8 micromolar, read-out: PERCENT INHIBITION @): 50% | inhibition in vivo at 2 mg/kg ([1]; po, PO): 14.3% | inhibition in vivo at 10 mg/kg ([1]; po, PO): 16.4%

COc1cc(C(=O)O)ccc1Cc1cn(C(c2ccccc2)c2ccccc2)c2ccc(NS(=O)(=O)c3sc(NC(C)=O)nc3C)cc12 [Example 90, 4-{[5-({[2-(acetylamino)-4-methyl-1,3-thiazol-5-yl]sulfonyl}amino)-1-benzhydryl-1H-indol-3-yl]methyl}-3-methoxybenzoic acid]
inhibition at 10.2 µM (cPLA2; CONCENTRATION 10.2 micromolar, read-out: PERCENT INHIBITION @): 50% | inhibition at 10.5 µM (cPLA2; CONCENTRATION 10.5 micromolar, read-out: PERCENT INHIBITION @): 50% | inhibition in vivo at 2 mg/kg ([1]; po, PO): -0.18% | inhibition in vivo at 10 mg/kg ([1]; po, PO): 2.7%
